{"source": "patent US11617726B2", "about": "“Method for preventing, treating, or ameliorating a microbial infection” (priority 2018, dated 2023)", "system": "Multidrug Resistant Acinetobacter baumannii Isolates", "assay": "MIC of the micro-emulsions by broth dilution", "format": "cell-based", "method": "Nine sterile 7 mL PJ tubes were arranged in a rack in a row. Each tube contained one mL sterile MHB. Seven tubes were labeled as 7.847 mg+256 μg/mL, 3.923 mg+128 μg/mL, 1.961 mg+64 μg/mL, 0.980 mg+32 μg/mL, 0.490 mg+16 μg/mL, 0.245 mg+8 μg/mL and 0.122 mg+4 μg/mL. The eighth and ninth tubes were labeled as positive and negative controls, respectively.\nThe micro-emulsion made according to Example 1 was serially diluted to give two-fold dilutions as follows: one mL of the micro-emulsion of Example 1 was dispensed in the first tube (labeled as 7.847 mg+256 μg/mL) to give a concentration of 15.69 mg+512 μg drug/mL MHB. One mL of the first tube was added to the second tube (labeled as 3.923 mg+128 μg/mL) to give a concentration of 7.847 mg+256 μg drug/mL MHB. One mL of the second tube was transferred to the third tube (labeled as 1.961 mg+64 μg/mL) to give a concentration of 3.923 mg+128 drug/mL MHB. One mL of the third tube was added to the fourth tube (labeled as 0.980 mg+32 μg/mL) to give a concentration of 1.961 mg+64 drug/mL MHB. One mL of the fourth tube was dispensed in the fifth tube (labeled as 0.490 mg+16 μg/mL) to give a concentration of 0.980 mg+32 drug/mL MHB. One mL of the fifth tube was dispensed in the sixth tube (labeled as 0.245 mg+8 μg/mL) to give a concentration of 0.490 mg+16 μg drug/mL MHB. One mL of the sixth tube was added to the seventh tube (labeled as 0.122 mg+4 μg/mL) to give a concentration of 0.245 mg+8 μg drug/mL MHB. One mL of the content of the seventh tube was discarded. Inoculum suspensions (at 1-2×10^8 CFU/mL) were diluted 1:100 in MHB to obtain 1×10^6 CFU/mL. One mL of the diluted inoculum suspension (1×10^6 CFU/mL) was transferred to each tube except tube number nine.\nAnother nine sterile 7 mL PJ tubes were arranged in a rack in a row. Each tube contained one mL sterile MHB. […]\nAll inoculated tubes were incubated for 16-20 hours at 37° C. aerobically. After this incubation period, MIC was determined manually by observing the lowest concentration of antimicrobial agent showing no visible growth (turbidity). […]", "data": [{"smiles": "CC1=CC(=O)C(C(C)C)=CC1=O", "note": "[Thymoquinone, 2-isopropyl-5-methylbenzo-1,4-quinone]", "values": [{"measurement": "MIC", "setting": "Isolate 121", "value": 64, "unit": "µg/mL"}, {"measurement": "MIC", "setting": "Isolate 127", "value": 32, "unit": "µg/mL"}, {"measurement": "MIC", "setting": "Isolate 129", "value": 32, "unit": "µg/mL"}]}]}
